Assay results from patent US6953813B1, “2-Aminotetralin derivatives for the therapy of glaucoma” (Chiesi Farmaceutici S.p.A., priority 1999, dated 2005).

Tested on: New-Zealand albino rabbits
Test: IOP after repeated administration in rabbits with α-chymotrypsin-increased IOP
Format: in vivo, rabbit
Conditions: two drops of 5% solution per eye every 6 hours
Description: The effectiveness of CHF 1035 after repeated administration was tested in a study versus placebo, in 20 New-Zealand albino rabbits. In order to induce a chronic increase of the IOP, each animal was intraocularly injected with 0.5 mg/day of α-chymotrypsin for five days. Starting from the first day of treatment, two drops of physiological saline containing 5% of the drug were instilled in each eye every 6 hours. The control animals only received physiological saline.
The IOP measurement was performed as described in example 1, before the injection and subsequently every day until the 10th day.
FIG. 2 reports the effect of CHF 1035 on rabbit IOP after α-chymotrypsin injection. Values are reported as mean (SE=1.2-2.6; n=20 per group).

Question: What does the source list for `CNC1CCc2c(ccc(OC(=O)C(C)C)c2OC(=O)C(C)C)C1` (racemic) [CHF 1035, (±)-(R,S)-5,6-diisobutyryloxy-2-methylaminotetralin]?
Answer: tolerability during the whole cycle of treatment: well tolerated during the whole cycle of treatment and induced no eye irritation and/or discomfort; IOP after α-chymotrypsin injection versus placebo (up to 10th day): significantly lower IOP than animals treated with placebo
